Assay results taken from patent US8841310B2, “Combinations of a pyrimidine containing NNRTI with RT inhibitors” (Janssen R & D Ireland, priority 2003, dated 2014).
Read-outs that look alike come from different tables or passages of the source.

Tests used:
HIV-1 single mutant 103N = test: Development of resistance in vitro, starting from single mutant; format: cell-based; details: starting from 103N
From the text: (§1) Emerging virus was collected for pheno- and genotyping. Cultures without evidence of virus replication were further sub-cultivated in the presence of the same concentration of inhibitor for a total duration of 30 days (10 passages).

[1] = tested on: HIV-1 single mutant Y181C; test: as above; format: cell-based
From the text: as §1

[2] = tested on: HIV-1 double mutant 103N + 181C; test: MT-4 cell-based antiviral assay, SDM mutant
Experimental: (§2) Compound E-TMC278 was tested in a cell-based assay, using natural host cells of HIV. MT-4 cells (a cell line of human T cells) were infected with HIV-1 (wild type or mutants) and exposed to different concentrations of antiviral compound in the presence of 10% fetal calf serum. Cytotoxicity was determined in parallel with the antiviral activity so that the selectivity of the antiviral effect could be assessed. Active compounds have to penetrate the cell membrane in order to interfere with replication steps inside the cell.
(§3) After four days of incubation at 37° C., the viability of the HIV and mock-infected cells was assessed by an automated tetrazolium-based calorimetric assay. This method enabled the calculation of both the 50% inhibitory concentration for inhibition of viral cytopathicity (IC50), the IC90, and the 50% cytotoxic concentration (CC50). The ratio CC50/IC50, also called the selectivity index, is an indication of the specificity of the antiviral effect. Tested HIV strains included: Wild type (wt) HIV-1; a panel of single and double mutants, obtained by site-directed mutagenesis (SDM), and a panel of clinical isolates, selected for resistance against NNRTIs.
(§4) A limited panel of HIV-1 mutants was constructed using site-directed mutagenesis (SDM) and homologous recombination techniques. […] Nevirapine (NVP) and efavirenz (EFV) were included as controls.

HIV-1 mutant 227C = test: MT-4 cell-based antiviral assay, SDM mutant
Experimental: as §2, §3, §4

HIV-1 mutant 188L = test: MT-4 cell-based antiviral assay, SDM mutant
Experimental: as §2, §3, §4

HIV-1 mutant 181C = test: MT-4 cell-based antiviral assay, SDM mutant
Experimental: as §2, §3, §4

[3] = tested on: HIV-1 double mutant 100I + 103N; test: MT-4 cell-based antiviral assay, SDM mutant
Experimental: as §2, §3, §4

HIV-1 mutant 236L = test: MT-4 cell-based antiviral assay, SDM mutant; details: Human immunodeficiency virus 1, MT4
Experimental: as §2, §3, §4

HIV-1 mutant 225H = test: MT-4 cell-based antiviral assay, SDM mutant; details: Human immunodeficiency virus 1, MT4
Experimental: as §2, §3, §4

HIV-1 mutant 179D = test: MT-4 cell-based antiviral assay, SDM mutant; details: Human immunodeficiency virus 1, MT4
Experimental: as §2, §3, §4

HIV-1 mutant 190S = test: MT-4 cell-based antiviral assay, SDM mutant; details: Human immunodeficiency virus 1, MT4
Experimental: as §2, §3, §4

HIV-1 mutant 106A = test: MT-4 cell-based antiviral assay, SDM mutant; details: Human immunodeficiency virus 1, MT4
Experimental: as §2, §3, §4

HIV-1 mutant 188C = test: MT-4 cell-based antiviral assay, SDM mutant; details: Human immunodeficiency virus 1, MT4
Experimental: as §2, §3, §4

HIV-1 mutant 227L = test: MT-4 cell-based antiviral assay, SDM mutant; details: Human immunodeficiency virus 1, MT4
Experimental: as §2, §3, §4

[4] = tested on: HIV-1 double mutant 103N + 181I; test: MT-4 cell-based antiviral assay, SDM mutant; details: Human immunodeficiency virus 1, MT4, 96 h
Experimental: as §2, §3, §4

HIV-1 mutant 188H = test: MT-4 cell-based antiviral assay, SDM mutant; details: Human immunodeficiency virus 1, MT4
Experimental: as §2, §3, §4

HIV-1 mutant 103N = test: MT-4 cell-based antiviral assay, SDM mutant
Experimental: as §2, §3, §4

HIV-1 mutant 190A = test: MT-4 cell-based antiviral assay, SDM mutant; details: Human immunodeficiency virus 1, MT4
Experimental: as §2, §3, §4

HIV-1 mutant 234I = test: MT-4 cell-based antiviral assay, SDM mutant; details: Human immunodeficiency virus 1, MT4
Experimental: as §2, §3, §4

HIV-1 mutant 108I = test: MT-4 cell-based antiviral assay, SDM mutant; details: Human immunodeficiency virus 1, MT4
Experimental: as §2, §3, §4

[5] = tested on: HIV-1 double mutant 227L + 106A; test: MT-4 cell-based antiviral assay, SDM mutant
Experimental: as §2, §3, §4

[6] = tested on: HIV-1 double mutant 101E + 103N; test: MT-4 cell-based antiviral assay, SDM mutant; details: Human immunodeficiency virus 1, MT4, 96 h
Experimental: as §2, §3, §4

HIV-1 mutant 101E = test: MT-4 cell-based antiviral assay, SDM mutant; details: Human immunodeficiency virus 1, MT4
Experimental: as §2, §3, §4

[7] = tested on: monotropic HIV strain Ba-L; test: MO-DC/CD4(+) T cell co-culture model of sexual HIV transmission; format: cell-based; details: Human immunodeficiency virus 1, BAL, T-cell, 336 h, read-out: EC50 (concentration suppressing 50% of viral replication)
From the text: Immature monocyte derived dendritic cells (immMO-DC) represent a good model for interstitial dendritic cells, which are early targets during sexual HIV transmission and important initiators of the immune response. These immMO-DC were used in “in vitro” models to test the prevention of HIV infection via sexual intercourse or related intimate contact between partners.
For instance, in one model, monocyte-derived dendritic cells (MO-DC) were infected for 2-hours with the monotropic HIV strain Ba-L at a multiplicity of infection (MOI) of 10^−3. After infection, cells were washed 6 times and resuspended in 10% BCS at 400.000 cells/ml. Autologous CD4(+) T cells were purified out of the lymphocyte fraction of the same elutration as the MO-DC and used at a concentration of 2×10^6 cells/ml ((ratio MO-DC/CD4(+) T: 1/5).
A serial dilution of a compound of formula (I) (test compound) was added to the MO-DC/CD4(+) T cell co-cultures. Each experiment was done in 96-well plates, in which each cup contained 50 μl of MO-DC, 50 μl of CD4(+) T cells and 100 μl of test compound. Half of the culture medium, with test compound, was refreshed twice weekly. Supernatants were analysed in ELISA after 14 days of culture. To determine antiviral activity, the test compound concentration able to suppress 50% of the viral replication at the end of the primary cultures (EC50) was measured.

[8] = Human immunodeficiency virus 1, MT4
[9] = Human immunodeficiency virus 1, MT4, read-out: IC50 value

SMILES: Cc1cc(/C=C/C#N)cc(C)c1Nc1ccnc(Nc2ccc(C#N)cc2)n1 [E-TMC278, (E)-4-[[4-[[4-(2-cyanoethenyl)-2,6-dimethylphenyl]-amino]-2-pyrimidinyl]-amino]-benzonitrile]
- virus breakthrough (HIV-1 single mutant 103N; at 10 nM): did occur
- virus breakthrough (HIV-1 single mutant 103N; at 40 and 200 nM): did not occur
- virus breakthrough ([1]; at 10 nM): did occur
- virus breakthrough ([1]; at 40 and 200 nM): did not occur
- IC50 [2, 8]: 0.8 nM
- IC50 [2, 9]: 1 nM
- IC50 (HIV-1 mutant 227C; [8]): 2 nM
- IC50 (HIV-1 mutant 227C; [9]): 2 nM
- IC50 (HIV-1 mutant 188L; [8]): 2 nM
- IC50 (HIV-1 mutant 188L; [9]): 2 nM
- IC50 (HIV-1 mutant 181C; [8]): 1.3 nM
- IC50 (HIV-1 mutant 181C; [9]): 1.3 nM
- IC90 [3, 8]: ~16 nM
- IC50 ([3]; Human immunodeficiency virus 1, MT4, 96 h, 100I + 103N, MT-4 cells): ~8 nM
- IC50 ([3]; Human immunodeficiency virus 1, MT4, read-out: IC50 value, Table 1, HIV RT mutation: 100I + 103N): 7.9 nM
- IC50 (HIV-1 mutant 236L): 0.3 nM
- IC50 (HIV-1 mutant 225H): 0.3 nM
- IC50 (HIV-1 mutant 179D): 0.6 nM
- IC50 (HIV-1 mutant 190S): 0.1 nM
- IC50 (HIV-1 mutant 106A): 0.2 nM
- IC50 (HIV-1 mutant 188C): 0.1 nM
- IC50 (HIV-1 mutant 227L): 0.3 nM
- IC50 [4]: 1 nM
- IC50 (HIV-1 mutant 188H): 0.2 nM
- IC50 (HIV-1 mutant 103N; [8]): 0.3 nM
- IC50 (HIV-1 mutant 103N; [9]): 0.3 nM
- IC50 (HIV-1 mutant 190A): 0.3 nM
- IC50 (HIV-1 mutant 234I): 0.3 nM
- IC50 (HIV-1 mutant 108I): 0.3 nM
- IC50 ([5]; Human immunodeficiency virus 1, MT4, 96 h): 1 nM
- IC50 [5, 9]: 1 nM
- IC50 [6]: 0.5 nM
- IC50 (HIV-1 mutant 101E): 1.6 nM
- EC50 [7]: 0.55 nM
